Reference: patent publication US20260206761A1, “HETEROARYL-TRIAZOLE COMPOUNDS AS PESTICIDES” (Bayer Aktiengesellschaft, priority 2019, published 2026)

How the values were obtained:
Assay type in all cases: in vivo
[1] = system: fall armyworm larvae (Spodoptera frugiperda); experiment: Spodoptera frugiperda spray test; conditions: 168 h, read-out: activity (mortality)
Summary of the method: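 Compound in acetone/DMF, diluted in water with 1000 ppm alkylarylpolyglycol ether emulsifier, sprayed on maize leaf sections. Dried leaves infested with fall armyworm larvae; % mortality after 7 days (100% = all killed, 0% = none).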

[2] = system: adult cat fleas (Ctenocephalides felis); experiment: Ctenocephalides felis in-vitro contact test, adult cat flea; conditions: application rate 5 μg/cm^2 (=500 g/ha), after 48 hours, read-out: activity (efficacy: fleas dead or moribund)
Experimental: Ctenocephalides felis—In-Vitro Contact Tests Adult Cat Flea
9 mg compound is solved in 1 mL acetone and diluted with acetone to the desired concentration. 250 μL of the test solution is filled in 25 mL glass test tubes and homogeneously distributed on the inner walls by rotation and tilting on a shaking device (2 h at 30 rpm). With a compound concentration of 900 ppm, an inner surface of 44.7 cm^2 and a homogeneous distribution, a dose of […] is achieved.
After the solvent has evaporated, each test tube is filled with 5-10 adult cat fleas (Ctenocephalides felis), closed with a perforated lid and incubated in a lying position at room temperature and relative humidity. After 48 hours efficacy is determined. The fleas are patted on the ground of the tubes and are incubated on a heating plate at 45-50° C. for at most 5 minutes. Immotile or uncoordinated moving fleas, which are not able to escape the heat by climbing upwards, are marked as dead or moribund.
An efficacy of 100% means all fleas are dead or moribund; 0% means no fleas are dead or moribund.

[3] = system: adult engorged female ticks (Rhipicephalus microplus); experiment: Rhipicephalus (Boophilus) microplus injection test; conditions: 168 h, egg deposition after 7 days, read-out: activity (efficacy: infertile eggs); for pest or weed control at 4 pg: application rate 4 pg/animal; for pest or weed control at 0.02 mg: application rate 20 μg/animal
Summary of the method: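 Five adult engorged female ticks injected into the abdomen with 1 μL compound solution in DMSO, then held in a climate chamber. Fertile egg deposition assessed after 7 days, unclear eggs kept until hatching (about 42 days); efficacy 100% = all eggs infertile, 0% = all fertile.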

[4] = system: Rhipicephalus microplus larvae (strain Parkhurst, resistant against synthetic pyrethroids); experiment: Rhipicephalus (Boophilus) microplus in-vitro contact test, larval cattle tick; conditions: after 48 hours, read-out: activity (efficacy: larvae dead or moribund); for pest or weed control at 100 g/ha: application rate 1 pg/cm^2 (=100 g/ha); for pest or weed control at 500 g/ha: application rate 5 pg/cm^2 (=500 g/ha)
Summary of the method: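 Acetone solutions coated onto inner walls of glass tubes by rotation (900 ppm giving 5 μg/cm^2); after evaporation, 20-50 larvae added per tube and held at 27° C., 85% relative humidity. Efficacy read after 48 h from negative geotactic behaviour; 100% = all larvae dead or moribund.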

[5] = system: adult unfed cat fleas (Ctenocephalides felis); experiment: Ctenocephalides felis oral test; conditions: 48 h, read-out: activity (mortality)
Experimental: Ctenocephalides felis—Oral Test
Solvent: dimethyl sulfoxide
To produce a suitable preparation of active compound, 10 mg of active compound are dissolved in 0.5 mL solvent, and the concentrate is diluted with cattle blood to the desired concentration.
Approximately 20 adult unfed cat fleas (Ctenocephalides felis) are placed in flea chambers. The blood chamber, sealed with parafilm on the bottom, are filled with cattle blood supplied with compound solution and placed on the gauze covered top of the flea chamber, so that the fleas are able to suck the blood. The blood chamber is heated to 37° C. whereas the flea chamber is kept at room temperature.
After 2 days mortality in % is determined. 100% means all the fleas have been killed; 0% means none of the fleas have been killed.

[6] = system: green peach aphid (Myzus persicae); experiment: Myzus persicae spray test; conditions: 120 h, after 5 days; for mortality at 100 g/ha: application rate 100 g/ha
Experimental: Myzus persicae—Spray Test
Solvent: 78.0 parts by weight acetone • 1.5 parts by weight dimethylformamide
Emulsifier: alkylarylpolyglycol ether
To produce a suitable preparation of active compound, 1 part by weight of active compound is mixed with the stated amount of solvents and is diluted with water, containing an emulsifier concentration of 1000 ppm, to the desired concentration. Further test concentrations are prepared by dilution with emulsifier containing water.
Chinese cabbage (Brassica pekinensis) leaf disks infected with all instars of the green peach aphid (Myzus persicae), are sprayed with a preparation of the active ingredient of the desired concentration.
After 5 days mortality in % is determined. 100% means all aphids have been killed and 0% means none of the aphids have been killed.

[7] = system: green peach aphid (Myzus persicae); experiment: Myzus persicae oral test; conditions: 120 h, application rate 4 ppm, after 5 days
Summary of the method: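 Oral uptake format: water-diluted acetone concentrate of compound is blended into IPL41 medium carrying 33%+15% sugar and offered under a parafilm membrane. Percentage of dead insects is recorded after 5 days.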

[8] = system: adult brown dog ticks (Rhipicephalus sanguineus); experiment: Rhipicephalus sanguineus in-vitro contact test, adult brown dog ticks; conditions: after 48 hours, read-out: activity (efficacy: ticks dead or moribund); for pest or weed control at 100 g/ha: application rate 1 pg/cm^2 (=100 g/ha); for pest or weed control at 5 µg/cm2, 500 g/ha: application rate 5 μg/cm^2 (=500 g/ha)
Summary of the method: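 Acetone solution rolled onto tube walls, 2 h at 30 rpm; 900 ppm → 5 μg/cm^2. Solvent evaporated, 5-10 adults/tube, perforated lid, lying, RT. 48 h: heat plate 45-50° C ≤5 min; immotile/uncoordinated = dead/moribund. 100% = all dead/moribund.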

[9] = system: larvae of the southern green stink bug (Nezara viridula); experiment: Nezara viridula spray test; conditions: 96 h, after 4 days; for mortality at 100 g/ha: application rate 100 g/ha
Summary of the method: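 Compound in acetone/dimethylformamide, diluted in water with 1000 ppm alkylarylpolyglycol ether emulsifier, sprayed onto barley plants carrying stink bug larvae. Mortality (%) scored after 4 days, 100% meaning all insects killed.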

[10] = system: larvae of the banded cucumber beetle (Diabrotica balteata); experiment: Diabrotica balteata spray test; conditions: 168 h, application rate 100 g/ha (=32 pg/well), after 7 days, read-out: activity (efficacy: seedlings grown)
Summary of the method: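 Wheat seedlings, germinated 1 day on agar (5 seeds/well), sprayed with active compound in acetone/DMF diluted in water containing 1000 ppm emulsifier, then infested with 10-20 D. balteata larvae. Efficacy (%) scored after 7 days: 100% = seedlings grown as untreated uninfested control, 0% = no seedlings grown.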

[11] = system: Aedes aegypti strain MONHEIM; experiment: Aedes aegypti test (AEDSAE surface treatment & contact assay); conditions: 24 hours after contact, read-out: efficacy (mortality); for mortality at 4 mg/m2: surface concentration 4 mg/m^2, exposure 30 minutes
Experimental: Aedes aegypti Test (AEDSAE Surface Treatment & Contact Assay)
Solvent: Aceton+2000 ppm rapeseed oil methyl ester (RME)
In order to produce a sufficient, active ingredient containing solution it is necessary to solve the test compound in the solvent-mix (acetone at 2 mg/ml/RME 2000 ppm). This solution is pipetted onto a glazed tile and after evaporation of the acetone, adult mosquitoes of the species Aedes aegypti strain MONHEIM are placed onto the dried surface. The exposure time is 30 minutes. Mortality in percent (%) is determined 24 hours after contact of the insects to the treated surface. 100% mortality means that all tested insects are dead, whereas 0% means that no insect died.

Structure (SMILES) | mortality at 100 g/ha [1] [%] | pest or weed control at 5 µg/cm2 [2] [%] | pest or weed control at 4 pg [3] [%] | pest or weed control at 0.02 mg [3] [%] | pest or weed control at 100 g/ha [4] [%] | pest or weed control at 500 g/ha [4] [%] | mortality at 100 ppm [5] [%] | mortality at 100 g/ha [6] [%] | mortality at 4 ppm [7] [%] | pest or weed control at 100 g/ha [8] [%] | pest or weed control at 5 µg/cm2, 500 g/ha [8] [%] | mortality at 100 g/ha [9] [%] | pest or weed control at 100 g/ha [10] [%] | mortality at 500 g/ha ([6]; application rate 500 g/ha) [%] | mortality at 500 g/ha ([9]; application rate 500 g/ha) [%] | mortality at 4 mg/m2 [11] [%] | mortality at 20 mg/m2 ([11]; surface concentration 20 mg/m^2, exposure 30 minutes) [%]
CC(NC(=O)c1cc(Cl)cc(S(C)(=O)=O)c1)c1nc(Cl)nn1-c1ccc(C#N)cn1 (stereo not shown) [I-32] | 100 | 100 | 100 | 100 | 100 | 100 | 100 |  |  |  |  |  |  |  |  |  | 
CC(NC(=O)c1cc(OC(F)(F)F)cc(C2CC2)c1)c1nc(I)nn1-c1ncccn1 (stereo not shown) [I-43] | 100 |  |  |  | 100 | 100 |  | 100 | 100 | 100 | 100 | 100 | 100 |  |  |  | 
C[C@H](NC(=O)c1cc(C(F)F)cc(S(C)(=O)=O)c1)c1nc(C2CC2)nn1-c1ccc(C#N)cn1 [I-51] | 100 | 90 | 100 |  | 100 | 100 | 100 |  | 100 |  |  |  | 100 |  |  |  | 
COc1nc([C@H](C)NC(=O)c2cc(Cl)cc(S(=O)(=O)C(F)(F)F)c2)n(-c2ccc(Cl)cn2)n1 [I-52] | 83 | 90 |  |  |  |  |  |  |  |  |  |  |  |  |  |  | 
C[C@H](NC(=O)c1cc(C(F)F)cc(S(C)(=O)=O)c1)c1nc(C2CC2)nn1-c1ncc(Cl)cn1 [I-67] | 100 |  |  |  |  |  |  | 90 | 100 |  |  | 100 | 100 | 100 | 100 |  | 
COc1nc([C@H](C)NC(=O)c2cc(C(F)F)cc(C3CC3)c2)n(-c2ccc(C#N)cn2)n1 [I-70] |  | 80 |  |  | 100 | 100 |  |  |  |  | 80 |  |  |  |  |  | 
C[C@H](NC(=O)c1cc(Br)cc(S(C)(=O)=O)c1)c1ncnn1-c1ccc(Cl)cn1 [II-40] | 100 | 100 | 100 | 100 | 100 | 100 | 100 |  |  | 100 | 100 | 100 |  |  |  | 80 to 100 | 
CCS(=O)(=O)c1cc(C(=O)N[C@@H](C)c2ncnn2-c2ccc(Cl)cn2)cc(C(F)(F)F)c1 [II-45] |  | 80 | 100 | 100 | 100 | 100 | 100 |  |  |  |  | 100 | 100 |  |  | 80 to 100 | 
C[C@H](NC(=O)c1cc(C#N)cc(C2CC2)c1)c1ncnn1-c1ccc(C#N)cn1 [II-53] | 83 | 100 |  |  | 80 | 80 | 100 |  |  |  |  |  |  |  |  | 80 to 100 | 80 to 100
C[C@H](NC(=O)c1cc(I)cc(C2CC2)c1)c1ncnn1-c1ccc(C#N)cn1 [II-58] | 100 | 80 | 100 |  | 100 | 100 | 100 |  |  | 100 | 100 |  | 100 |  |  |  | 
C[C@H](NC(=O)c1cc(Br)cc(C2CC2)c1)c1ncnn1-c1ccc(C#N)cn1 [II-59] | 100 | 100 | 80 |  | 100 | 100 |  |  | 100 | 100 | 100 |  | 100 |  |  |  | 
